Source: patent US20100075965A1, “PI3 KINASE INHIBITORS AND METHODS OF THEIR USE” (Novartis AG, priority 2006, published 2010)
Where two headings read alike, the source gives them in different places.

Assays:
[1] = molecular target: PI3 K Alpha (Homo sapiens, UniProt P42336); experiment: PI3 kinase phosphorylation assays (homogenous solution phase, one step solid phase, ATP depletion/KinaseGlo); format: biochemical
Protocol: Compounds to be tested are dissolved in DMSO and directly distributed into 384-well flashplates at 1.25 μL per well. To start the reaction, 20 μL of 6 nM PI3 kinase are added into each well followed by 20 μL of 400 nM ATP containing a trace of radiolabeled ATP and 900 nM 1-alpha-phosphatidylinositol (PI). The plates are briefly centrifuged to remove any air gap. The reaction is performed for 15 minutes and then stopped by the addition of 20 μL of 100 mM EDTA. The stopped reaction is incubated overnight at RT to allow the lipid substrate to bind by hydrophobic interaction to the surface of the flashplate. The liquid in the wells is then washed away, and the labeled substrate is detected with scintillation counting.
This method is similar to Assay 1 except that the lipid substrate (1-alpha-phosphatidylinositol (PI)) is first dissolved in a coating buffer and incubated on flashplate at room temperature overnight to allow the lipid substrate to bind by hydrophobic interaction to the surface of the flashplate. Unbound substrate is then washed away. On the day of assay, 20 μL of 6 nM PI3 kinase are added into each well followed by 20 μL of 400 nM ATP containing trace of radiolabeled ATP. Compounds are added together with enzyme and ATP to the lipid-coated plates. The plates are briefly centrifuged to remove any air gap. The reaction is performed for two to three hours. The reaction is stopped by addition of 20 μL of 100 mM EDTA or by immediate plate washing. Phosphorylated lipid substrate is detected by scintillation counting.
Compounds to be tested are dissolved in DMSO and directly distributed into a black 384-well plate at 1.25 μL per well. To start the reaction, 25 μL of 10 nM PI3 kinase and 5 μg/mL 1-alpha-phosphatidylinositol (PI) are added into each well followed by 25 μL of 2 μM ATP. The reaction is performed until approx 50% of the ATP is depleted, and then stopped by the addition of 25 μL of KinaseGlo solution. The stopped reaction is incubated for 5 minutes and the remaining ATP is then detected via luminescence.

[2] = system: A2780 cells; experiment: Viability assay in A2780 (Cell Titer Glo); format: cell-based, human; conditions: A2780 cells, read-out: A2780 Cell prolif. EC50
Protocol: Cell viability was assessed with Cell Titer Glo assay, Promega. Cells were seeded in TC treated 96-well plates at a density of 1,000 (A2780 cells) per well in DMEM with 10% FBS, 1% Sodium Pyruvate, and 1% Penicillin Streptomycin for a minimum of 2 hrs prior to addition of compound. Test compounds were serially diluted (3 fold) in DMSO to 500× the final concentration. For each concentration of test compound, 2 μL (500×) aliquots of compound or 100% DMSO (control) were diluted in 500 μL of culture medium to 2× final concentration then diluted 1× on the cells. Cells were incubated for 72 hrs at 37° C., 5% CO2. After which Cell Titer Glo is added to determine viable cells, the assay was performed according to the manufacturer's instruction (Promega Corporation, Madison, Wis. USA). Each experimental condition was performed in duplicate. Raw data was imported in Abase and EC50s calculated with XL-fit data analysis software and are shown in Tables 1 and 2 in the column labeled “A2780 Cell prolif. EC50”.

[3] = ATP depletion assay, read-out: PI3 K Alpha IC50

PI3 K Alpha, sequence (P42336 whole entry): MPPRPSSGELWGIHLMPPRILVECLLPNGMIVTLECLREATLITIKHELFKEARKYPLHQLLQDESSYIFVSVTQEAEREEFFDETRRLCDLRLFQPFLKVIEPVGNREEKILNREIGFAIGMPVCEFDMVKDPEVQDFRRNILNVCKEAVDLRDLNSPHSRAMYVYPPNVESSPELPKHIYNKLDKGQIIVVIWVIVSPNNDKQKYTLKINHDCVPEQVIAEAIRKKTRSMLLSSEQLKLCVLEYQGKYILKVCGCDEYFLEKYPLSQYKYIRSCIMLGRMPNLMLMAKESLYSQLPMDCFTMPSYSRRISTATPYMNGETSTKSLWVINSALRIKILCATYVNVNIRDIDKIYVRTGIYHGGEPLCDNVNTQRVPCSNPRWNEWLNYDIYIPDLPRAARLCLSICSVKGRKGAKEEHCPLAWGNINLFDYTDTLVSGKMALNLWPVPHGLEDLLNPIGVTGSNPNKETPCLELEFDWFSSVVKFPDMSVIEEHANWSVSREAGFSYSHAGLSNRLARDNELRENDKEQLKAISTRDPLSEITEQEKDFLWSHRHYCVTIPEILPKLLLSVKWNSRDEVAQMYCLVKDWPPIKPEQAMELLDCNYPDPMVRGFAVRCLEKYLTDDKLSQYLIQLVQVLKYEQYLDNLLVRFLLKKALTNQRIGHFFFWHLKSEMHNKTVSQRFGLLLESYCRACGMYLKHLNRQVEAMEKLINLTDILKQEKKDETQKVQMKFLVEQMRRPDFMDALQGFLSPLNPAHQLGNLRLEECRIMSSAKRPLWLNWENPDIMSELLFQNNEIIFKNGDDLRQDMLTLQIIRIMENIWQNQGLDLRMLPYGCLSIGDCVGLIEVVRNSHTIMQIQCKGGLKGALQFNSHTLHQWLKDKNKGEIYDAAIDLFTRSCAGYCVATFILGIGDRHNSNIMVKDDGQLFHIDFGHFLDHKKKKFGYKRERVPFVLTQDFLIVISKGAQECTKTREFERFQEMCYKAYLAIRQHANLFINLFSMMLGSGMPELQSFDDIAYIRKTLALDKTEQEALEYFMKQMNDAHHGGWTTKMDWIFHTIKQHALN
PI3 K Alpha, sequence (P27986 whole entry partner): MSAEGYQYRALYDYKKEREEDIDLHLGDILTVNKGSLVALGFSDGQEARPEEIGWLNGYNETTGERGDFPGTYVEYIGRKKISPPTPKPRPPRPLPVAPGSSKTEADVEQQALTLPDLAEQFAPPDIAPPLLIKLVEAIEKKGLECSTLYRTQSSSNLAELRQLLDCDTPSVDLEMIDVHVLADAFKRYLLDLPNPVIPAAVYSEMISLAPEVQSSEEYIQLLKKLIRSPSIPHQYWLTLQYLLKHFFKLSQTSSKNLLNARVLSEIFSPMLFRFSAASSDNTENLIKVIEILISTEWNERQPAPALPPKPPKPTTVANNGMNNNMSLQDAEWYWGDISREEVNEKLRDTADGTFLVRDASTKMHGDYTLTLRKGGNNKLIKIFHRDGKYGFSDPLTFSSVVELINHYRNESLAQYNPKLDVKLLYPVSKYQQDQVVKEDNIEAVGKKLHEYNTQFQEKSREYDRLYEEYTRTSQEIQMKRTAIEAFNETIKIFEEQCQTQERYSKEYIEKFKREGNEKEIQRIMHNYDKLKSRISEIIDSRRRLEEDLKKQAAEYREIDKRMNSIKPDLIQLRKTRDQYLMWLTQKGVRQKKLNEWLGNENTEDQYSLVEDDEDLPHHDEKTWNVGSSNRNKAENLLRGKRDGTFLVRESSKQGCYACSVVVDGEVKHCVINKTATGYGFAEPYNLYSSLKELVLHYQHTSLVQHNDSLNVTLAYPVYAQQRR

Row | Structure (SMILES) | IC50 ([1]; read-out: PI3K Alpha IC50) [µM] | EC50 ([2]; Homo sapiens) [µM] | other results
1 | CC(=O)Nc1nc2ccc(-c3cnc(N)nc3C(F)(F)F)cc2s1 [Example 2-13, N-[6-(2-Amino-4-trifluoromethyl-pyrimidin-5-yl)-benzothiazol-2-yl]-acetamide] | – | – | IC50 [1, 3]: < 1 µM; EC50 ([2]; Homo sapiens, 72 hrs): < 25 µM
2 | CC(=O)Nc1nc2cc(C)c(-c3cnc(N)c(C(F)(F)F)c3)cc2s1 [Example 2-28, N-[6-(6-Amino-5-trifluoromethyl-pyridin-3-yl)-5-methyl-benzothiazol-2-yl]-acetamide] | – | – | IC50 [1, 3]: < 1 µM; EC50 ([2]; Homo sapiens, 72 hrs): < 25 µM
3 | CC(=O)Nc1nc2cc(F)c(-c3cnc(N)c(C(F)(F)F)c3)cc2s1 [Example 2-29, N-[6-(6-Amino-5-trifluoromethyl-pyridin-3-yl)-5-fluoro-benzothiazol-2-yl]-acetamide] | – | – | IC50 [1, 3]: < 1 µM; EC50 ([2]; Homo sapiens, 72 hrs): < 25 µM
4 | Nc1ccc(C(=O)Nc2nc3ccc(-c4cnc(N)c(C(F)(F)F)c4)cc3s2)cn1 [Example 2-34, 6-amino-N-(6-(6-amino-5-(trifluoromethyl)pyridin-3-yl)benzo[d]thiazol-2-yl)nicotinamide] | – | – | IC50 [1, 3]: < 1 µM; EC50 ([2]; Homo sapiens, 72 hrs): < 1 µM
5 | CC(=O)Nc1cccc(-c2c(NC(C)=O)nc3ccc(-c4cnc(N)c(C(F)(F)F)c4)cn23)c1 [Example 9, N-[3-(3-Acetylamino-phenyl)-6-(6-amino-5-trifluoromethyl-pyridin-3-yl)-imidazo[1,2-a]pyridin-2-yl]-acetamide] | < 1 | < 25 | –
6 | CC(=O)Nc1nc2ccc(-c3cnc(N)c(C(F)(F)F)c3)cn2c1-c1cccc(F)c1 [Example 10, N-[6-(6-Amino-5-trifluoromethyl-pyridin-3-yl)-3-(3-fluoro-phenyl)-imidazo[1,2-a]pyridin-2-yl]-acetamide] | < 1 | < 25 | –
7 | CC(=O)Nc1nc2ccc(-c3cnc(N)c(Br)c3)cn2c1Br [Example 15, N-[6-(6-Amino-5-bromo-pyridin-3-yl)-3-bromo-imidazo[1,2-a]pyridin-2-yl]-acetamide] | < 1 | < 10 | –
8 | CC(=O)Nc1cn2nc(-c3cnc(N)cc3C(F)(F)F)ccc2n1 [Example 24, N-[6-(6-Amino-4-trifluoromethyl-pyridin-3-yl)-imidazo[1,2-b]pyridazin-2-yl]-acetamide] | < 1 | < 25 | –
9 | CCCc1c(NC(C)=O)nc2ccc(-c3cnc(N)c(C(F)(F)F)c3)cn12 [Example 31, N-[6-(6-Amino-5-trifluoromethyl-pyridin-3-yl)-3-propyl-imidazo[1,2-a]pyridin-2-yl]-acetamide] | < 1 | < 25 | –
10 | CNC(=O)[C@@H]1CCN1C(=O)Nc1cn2cc(-c3cnc(N)c(C(F)(F)F)c3)ccc2n1 [Example 36, (S)-N1-(6-(6-amino-5-(trifluoromethyl)pyridin-3-yl)imidazo[1,2-a]pyridin-2-yl)-N2-methylazetidine-1,2-dicarboxamide] | < 25 | < 25 | –
11 | COc1c(-c2cnc(N)c(C(F)(F)F)c2)ccc2nc(NC(=O)C(F)(F)F)cn12 [Example 37, N-(6-(6-amino-5-(trifluoromethyl)pyridin-3-yl)-5-methoxy-imidazo[1,2-a]pyridin-2-yl)-2,2,2-trifluoroacetamide] | < 25 | < 25 | –
12 | Nc1ncc(-c2ccc3nc(NC(=O)[C@@H]4CCCN4)cn3c2)cc1C(F)(F)F [Example 38, (S)-N-(6-(6-amino-5-(trifluoromethyl)pyridin-3-yl)imidazo[1,2-a]pyridin-2-yl)pyrrolidine-2-carboxamide] | < 25 | < 10 | –
13 | CC(=O)Nc1cn2cc(-c3cnc(N)c(OC4CCN(C)CC4)n3)ccc2n1 [Example 40, N-(6-(5-amino-6-(1-methylpiperidin-4-yloxy)pyrazin-2-yl)imidazo[1,2-a]pyridin-2-yl)acetamide] | < 10 | < 25 | –
14 | Nc1ncc(-c2ccc3nc(NC(=O)C(F)(F)F)cn3c2O)cc1C(F)(F)F [Example 41] | < 10 | < 25 | –
15 | CCN(CC)CCOc1cc(-c2ccc3nc(NC(C)=O)cn3c2)cnc1N [Example 42, N-(6-(6-amino-5-(2-(diethylamino)ethoxy)pyridin-3-yl)imidazo[1,2-a]pyridin-2-yl)acetamide] | < 10 | < 25 | –
16 | COc1cc(-c2ccc3nc(NC(C)=O)cn3n2)c(C)nc1N [Example 43, N-(6-(6-amino-5-methoxy-2-methylpyridin-3-yl)imidazo[1,2-b]pyridazin-2-yl)acetamide] | < 10 | < 25 | –
17 | CC(C)(C(=O)Nc1cn2cc(-c3cnc(N)c(C(F)(F)F)c3)ccc2n1)c1ccccc1 [Example 44] | < 10 | < 25 | –
18 | COc1ccc(C2CCCN2C(=O)Nc2cn3cc(-c4cnc(N)c(C(F)(F)F)c4)ccc3n2)cc1OC (stereo not drawn) [Example 276, N-(6-(6-amino-5-(trifluoromethyl)pyridin-3-yl)imidazo[1,2-a]pyridin-2-yl)-2-(3,4-dimethoxyphenyl) pyrrolidine-1-carboxamide] | < 1 | – | –
19 | COc1ccccc1C1CCCN1C(=O)Nc1cn2cc(-c3cnc(N)c(C(F)(F)F)c3)ccc2n1 (stereo not drawn) [Example 277, N-(6-(6-amino-5-(trifluoromethyl)pyridin-3-yl)imidazo[1,2-a]pyridin-2-yl)-2-(2-methoxyphenyl) pyrrolidine-1-carboxamide] | < 1 | – | –
20 | CC(C)C(=O)Nc1cn2cc(-c3cnc(N)c(C(F)(F)F)c3)ccc2n1 [Example 278, N-(6-(6-amino-5-(trifluoromethyl)pyridin-3-yl)imidazo[1,2-a]pyridin-2-yl)isobutyramide] | – | < 25 | –
21 | CC(C)(C)OC(=O)N1CCC1C(=O)Nc1cn2nc(-c3cnc(N)c(C(F)(F)F)c3)ccc2n1 (stereo not drawn) [Example 279, tert-butyl 2-(6-(6-amino-5-(trifluoromethyl)pyridin-3-yl)imidazo[1,2-b]pyridazin-2-ylcarbamoyl) azetidine-1-carboxylate] | – | – | EC50 [2]: < 25 µM
22 | CC(=O)Nc1cn2cc(-c3cnc(N)c(OC4CCNCC4)n3)ccc2n1 [Example 280, N-(6-(5-amino-6-(piperidin-4-yloxy)pyrazin-2-yl)imidazo[1,2-a]pyridin-2-yl)acetamide] | – | < 25 | –
23 | CNC(=O)[C@@H]1CCCN1C(=O)Nc1cn2cc(-c3cnc(N)c(C(F)(F)F)c3)ccc2n1 [Example 281, (S)-N1-(6-(6-amino-5-(trifluoromethyl)pyridin-3-yl)imidazo[1,2-a]pyridin-2-yl)-N2-methylpyrrolidine-1,2-dicarboxamide] | – | < 25 | –
24 | CC(=O)N1CCCC[C@H]1C(=O)Nc1cn2cc(-c3cnc(N)c(C(F)(F)F)c3)ccc2n1 [Example 282, (S)-1-acetyl-N-(6-(6-amino-5-(trifluoromethyl)pyridin-3-yl)imidazo[1,2-a]pyridin-2-yl)piperidine-2-carboxamide] | – | < 25 | –
25 | CC(=O)Nc1cn2nc(-c3cnc(N)c(OCC(F)(F)F)n3)ccc2n1 [Example 284, N-(6-(5-amino-6-(2,2,2-trifluoroethoxy)pyrazin-2-yl)imidazo[1,2-b]pyridazin-2-yl)acetamide] | – | < 10 | –
26 | NC(=O)[C@@H]1CCCN1C(=O)Nc1cn2cc(-c3cnc(N)c(C(F)(F)F)c3)ccc2n1 [Example 285, (S)-N1-(6-(6-amino-5-(trifluoromethyl)pyridin-3-yl)imidazo[1,2-a]pyridin-2-yl)pyrrolidine-1,2-dicarboxamide] | – | < 10 | –
27 | CCN1CCC(Oc2nc(-c3ccc4nc(NC(C)=O)cn4c3)cnc2N)CC1 [Example 286, N-(6-(5-amino-6-(1-ethylpiperidin-4-yloxy)pyrazin-2-yl)imidazo[1,2-a]pyridin-2-yl)acetamide] | – | < 10 | –
28 | COCCOc1nc(-c2ccc3nc(NC(C)=O)cn3n2)cnc1N [Example 287, N-(6-(5-amino-6-(2-methoxyethoxy)pyrazin-2-yl)imidazo[1,2-b]pyridazin-2-yl)acetamide] | – | < 10 | –
